Literature values, collected in PMC7113793 (Antiviral Research, 2017).

How the values were obtained:
[1] = target: Citrullus vulgaris urease; details: read-out: Kis
[2] = target: Giardia lamblia carbamate kinase
aldehyde dehydrogenase = details: in vivo

CCN(CC)C(=S)SSC(=S)N(CC)CC [disulfiram]
Ki [1]: 67.6 µM
IC50 [2]: 0.6 to 1.4 µM
enzyme inhibition as compared to the activity of the control (aldehyde dehydrogenase): 77%

O=C(O)CN(CCN(CC(=O)O)CC(=O)O)CC(=O)O [EDTA]
loss of PL^pro activity (PL^pro): 62%
